From PubChem BioAssay AID2060362 (Molecular Pharmacology Branch, DTP, NCI, 2025)
pIC50: −log10 of the molar value. Several values for one entry are separate records, joined by “and”; a condition that tells them apart may be missing. Equal values may be shown once.

Test system: 128128-338-R-J1-PDC spheroids, viability % test/control
Assay: Anticancer human tumor 128128-338-R-J1-PDC patient-derived melanoma cell line growth inhibition [TAK]
Details: spheroids with HUVEC and MSC; for viability, T/C: stronger effect = lower value
Summary of the method: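 Drug combinations, each paired with TAK-243 or ipatasertib, were tested on multi-cell spheroids of 60% malignant cells, 25% HUVEC and 15% hMSC. Top concentrations were at or near the clinical Cmax (10 microM if undetermined), decreasing by half-log; viability is given as % test/control.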

[1] = curve of first compound, second compound 0.3 µM
[2] = curve of first compound, second compound 0.949 µM
[3] = curve of first compound, second compound 3 µM
[4] = curve of first compound, second compound 9.49 µM
[5] = curve of first compound, second compound 30 µM
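Note: spheroids exposed to compounds for 7 days.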
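Throughout, for viability, T/C: 100% = DMSO vehicle wells.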

CCCS(=O)(=O)Nc1ccc(F)c(C(=O)c2c[nH]c3ncc(-c4ccc(Cl)cc4)cc23)c1F + CC(C)NCC(C(=O)N1CCN(c2ncnc3c2C(C)CC3O)CC1)c1ccc(Cl)cc1
pIC50 [1]: 5.97
pIC50 [2]: 5.95
pIC50 [3]: 6.34
pIC50 [4]: > 6.50
pIC50 [5]: > 6.50
viability, T/C (second compound 0.3 µM, first compound 0.316 µM): 82.5%
viability, T/C (second compound 0.3 µM, first compound 1 µM): 52.1%
viability, T/C (second compound 0.3 µM, first compound 3.16 µM): 12.2%
viability, T/C (second compound 0.3 µM, first compound 10 µM): 0.57%
viability, T/C (second compound 0.3 µM, first compound 31.6 µM): 0.08%
viability, T/C (second compound 0.3 µM, first compound 100 µM): 0.68%
viability, T/C (second compound 0.949 µM, first compound 0.316 µM): 74.3%
viability, T/C (second compound 0.949 µM, first compound 1 µM): 54.4%
viability, T/C (second compound 0.949 µM, first compound 3.16 µM): 7.73%
viability, T/C (second compound 0.949 µM, first compound 10 µM): 0.33%
viability, T/C (second compound 0.949 µM, first compound 31.6 µM): 0.08%
viability, T/C (second compound 0.949 µM, first compound 100 µM): 0.4%
viability, T/C (second compound 3 µM, first compound 0.316 µM): 63.9%
viability, T/C (second compound 3 µM, first compound 1 µM): 22.1%
viability, T/C (second compound 3 µM, first compound 3.16 µM): 1.94%
viability, T/C (second compound 3 µM, first compound 10 µM): 0.06%
viability, T/C (second compound 3 µM, first compound 31.6 µM): 0.03%
viability, T/C (second compound 3 µM, first compound 100 µM): 0.24%
viability, T/C (second compound 9.49 µM, first compound 0.316 µM): 30.6%
viability, T/C (second compound 9.49 µM, first compound 1 µM): 9.75%
viability, T/C (second compound 9.49 µM, first compound 3.16 µM): 0.65%
viability, T/C (second compound 9.49 µM, first compound 10 µM): 0.02%
viability, T/C (second compound 9.49 µM, first compound 31.6 µM): 0.03%
viability, T/C (second compound 9.49 µM, first compound 100 µM): 0.11%
viability, T/C (second compound 30 µM, first compound 0.316 µM): 2.32%
viability, T/C (second compound 30 µM, first compound 1 µM): 0.63%
viability, T/C (second compound 30 µM, first compound 3.16 µM): 0.12%
viability, T/C (second compound 30 µM, first compound 10 µM): 0.07%
viability, T/C (second compound 30 µM, first compound 31.6 µM): 0.08%
viability, T/C (second compound 30 µM, first compound 100 µM): 0.12%

Cn1cnc2c(F)c(Nc3ccc(Br)cc3Cl)c(C(=O)NOCCO)cc21 + CC(C)NCC(C(=O)N1CCN(c2ncnc3c2C(C)CC3O)CC1)c1ccc(Cl)cc1
pIC50 [1]: 7.04
pIC50 [2]: 7.11
pIC50 [3]: 7.26
pIC50 [4]: 7.82
pIC50 [5]: > 8.02
viability, T/C (second compound 0.3 µM, first compound 0.00949 µM): 92.9%
viability, T/C (second compound 0.3 µM, first compound 0.03 µM): 83.4%
viability, T/C (second compound 0.3 µM, first compound 0.0949 µM): 48.7%
viability, T/C (second compound 0.3 µM, first compound 0.3 µM): 13.6%
viability, T/C (second compound 0.3 µM, first compound 0.949 µM): 1.29%
viability, T/C (second compound 0.3 µM, first compound 3 µM): 1.54%
viability, T/C (second compound 0.949 µM, first compound 0.00949 µM): 85.7%
viability, T/C (second compound 0.949 µM, first compound 0.03 µM): 76.6%
viability, T/C (second compound 0.949 µM, first compound 0.0949 µM): 45%
viability, T/C (second compound 0.949 µM, first compound 0.3 µM): 3.97%
viability, T/C (second compound 0.949 µM, first compound 0.949 µM): 0.63%
viability, T/C (second compound 0.949 µM, first compound 3 µM): 0.7%
viability, T/C (second compound 3 µM, first compound 0.00949 µM): 77%
viability, T/C (second compound 3 µM, first compound 0.03 µM): 76.2%
viability, T/C (second compound 3 µM, first compound 0.0949 µM): 26.3%
viability, T/C (second compound 3 µM, first compound 0.3 µM): 1.91%
viability, T/C (second compound 3 µM, first compound 0.949 µM): 0.35%
viability, T/C (second compound 3 µM, first compound 3 µM): 0.16%
viability, T/C (second compound 9.49 µM, first compound 0.00949 µM): 63%
viability, T/C (second compound 9.49 µM, first compound 0.03 µM): 30.6%
viability, T/C (second compound 9.49 µM, first compound 0.0949 µM): 10.7%
viability, T/C (second compound 9.49 µM, first compound 0.3 µM): 0.42%
viability, T/C (second compound 9.49 µM, first compound 0.949 µM): 0.35%
viability, T/C (second compound 9.49 µM, first compound 3 µM): 0.17%
viability, T/C (second compound 30 µM, first compound 0.00949 µM): 16.7%
viability, T/C (second compound 30 µM, first compound 0.03 µM): 4.78%
viability, T/C (second compound 30 µM, first compound 0.0949 µM): 0.34%
viability, T/C (second compound 30 µM, first compound 0.3 µM): 0.25%
viability, T/C (second compound 30 µM, first compound 0.949 µM): 0.15%
viability, T/C (second compound 30 µM, first compound 3 µM): 0.13%

CC(C)n1nc(-c2ccc3oc(N)nc3c2)c2c(N)ncnc21
viability, T/C (compound 0.000316 µM): 99.1% and 106%
viability, T/C (compound 0.001 µM): 94.7% and 96.1%
viability, T/C (compound 0.00316 µM): 83.2% and 80.7%
viability, T/C (compound 0.01 µM): 67.3% and 64.7%
viability, T/C (compound 0.0316 µM): 31.2% and 30.5%
viability, T/C (compound 0.1 µM): 6.18% and 6.1%
pIC50 (curve of compound): 7.77 and 7.80
